Results as given in ChEMBL document CHEMBL1201862, “PubChem BioAssay data set” (2004).
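Values below derive from 48-hour exposures of cells grown in 96-well plates, with endpoints linearly interpolated between the two concentrations bracketing the appropriate inhibition level. The concentration for 50% growth inhibition is given as GI50.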 Calls of active or inactive are those of the source. Cut-off read from the data, not from the text of the source: active = GI50 up to about 1.1 µM and inactive = higher.

Tests used:
Assay in all cases: NCI anticancer screen, dose series, 48 h
786-0 = tested on: 786-0
A498 = tested on: A498
A549 = tested on: A549
ACHN = tested on: ACHN
BT-549 = tested on: BT-549
CAKI-1 = tested on: CAKI-1
CCRF-CEM = tested on: CCRF-CEM
COLO 205 = tested on: COLO 205
DLD-1 = tested on: DLD-1
DMS-114 = tested on: DMS-114
DMS-273 = tested on: DMS-273
DU-145 = tested on: DU-145
EKVX = tested on: EKVX
HCC 2998 = tested on: HCC 2998
HCT-116 = tested on: HCT-116
HCT-15 = tested on: HCT-15
HL-60 = tested on: HL-60
HOP-18 = tested on: HOP-18
HOP-62 = tested on: HOP-62
HOP-92 = tested on: HOP-92
HT-29 = tested on: HT-29
Hs-578T = tested on: Hs-578T
IGROV-1 = tested on: IGROV-1
K562 = tested on: K562
KM-20L2 = tested on: KM-20L2
KM12 = tested on: KM12
LOX IMVI = tested on: LOX IMVI
M14 = tested on: M14
M19-MEL = tested on: M19-MEL
MCF7 = tested on: MCF7
MDA-MB-231 = tested on: MDA-MB-231
MDA-MB-435 = tested on: MDA-MB-435
MDA-N = tested on: MDA-N
MOLT-4 = tested on: MOLT-4
Malme-3M = tested on: Malme-3M
NCI-H226 = tested on: NCI-H226
NCI-H23 = tested on: NCI-H23
NCI-H460 = tested on: NCI-H460
NCI-H522 = tested on: NCI-H522
NCI/ADR-RES = tested on: NCI/ADR-RES
OVCAR-3 = tested on: OVCAR-3
OVCAR-4 = tested on: OVCAR-4
OVCAR-5 = tested on: OVCAR-5
OVCAR-8 = tested on: OVCAR-8
PC-3 = tested on: PC-3
RPMI-8226 = tested on: RPMI-8226
RXF 393 = tested on: RXF 393
SF-268 = tested on: SF-268
SF-295 = tested on: SF-295
SF-539 = tested on: SF-539
SK-MEL-28 = tested on: SK-MEL-28
SK-MEL-2 = tested on: SK-MEL-2
SK-MEL-5 = tested on: SK-MEL-5
SK-OV-3 = tested on: SK-OV-3
SN12C = tested on: SN12C
SNB-19 = tested on: SNB-19
SNB-75 = tested on: SNB-75
SNB-78 = tested on: SNB-78
SR = tested on: SR
SW-620 = tested on: SW-620
T47D = tested on: T47D
TK-10 = tested on: TK-10
U-251 = tested on: U-251
UACC-257 = tested on: UACC-257
UACC-62 = tested on: UACC-62
UO-31 = tested on: UO-31
LXFL 529 = tested on: LXFL 529
XF498 = tested on: XF498

## O=C1NC(=S)NC(=O)C1=C(O)Nc1ccccc1
786-0
  GI50: 28.1 µM (inactive)
A498
  GI50: 28.6 µM (inactive)
A549
  GI50: 24.1 µM (inactive)
ACHN
  GI50: 23.6 µM (inactive)
BT-549
  GI50: 12.1 µM (inactive)
CAKI-1
  GI50: 20.8 µM (inactive)
CCRF-CEM
  GI50: 16.4 µM (inactive)
COLO 205
  GI50: 27.4 µM (inactive)
DLD-1
  GI50: 36.6 µM (inactive)
DMS-114
  GI50: 25.8 µM (inactive)
DMS-273
  GI50: 28.7 µM (inactive)
DU-145
  GI50: 30.5 µM (inactive)
EKVX
  GI50: 35.7 µM (inactive)
HCC 2998
  GI50: 42.8 µM (inactive)
HCT-116
  GI50: 29.1 µM (inactive)
HCT-15
  GI50: 14.2 µM
HL-60
  GI50: 28.1 µM (inactive)
HOP-18
  GI50: 42.4 µM (inactive)
HOP-62
  GI50: 23.2 µM (inactive)
HOP-92
  GI50: 8.34 µM (inactive)
HT-29
  GI50: 47.4 µM (inactive)
Hs-578T
  GI50: 20.2 µM (inactive)
IGROV-1
  GI50: 32 µM (inactive)
K562
  GI50: 27.7 µM (inactive)
KM-20L2
  GI50: 44.9 µM (inactive)
KM12
  GI50: 36.6 µM (inactive)
LOX IMVI
  GI50: 23.3 µM (inactive)
M14
  GI50: 36.2 µM (inactive)
M19-MEL
  GI50: 37.2 µM (inactive)
MCF7
  GI50: 19.1 µM (inactive)
MDA-MB-231
  GI50: 31.8 µM (inactive)
MDA-MB-435
  GI50: 7.98 µM (inactive)
MDA-N
  GI50: 30 µM (inactive)
MOLT-4
  GI50: 10.3 µM (inactive)
Malme-3M
  GI50: 25.8 µM (inactive)
NCI-H226
  GI50: 30.5 µM (inactive)
NCI-H23
  GI50: 26.3 µM (inactive)
NCI-H460
  GI50: 22.7 µM (inactive)
NCI-H522
  GI50: 21.7 µM (inactive)
NCI/ADR-RES
  GI50: 30.5 µM (inactive)
OVCAR-3
  GI50: 25.5 µM (inactive)
OVCAR-4
  GI50: 34.6 µM (inactive)
OVCAR-5
  GI50: 47.2 µM (inactive)
OVCAR-8
  GI50: 27.8 µM (inactive)
PC-3
  GI50: 15 µM (inactive)
RPMI-8226
  GI50: 27.4 µM (inactive)
RXF 393
  GI50: 33.2 µM (inactive)
SF-268
  GI50: 32.7 µM (inactive)
SF-295
  GI50: 27.7 µM (inactive)
SF-539
  GI50: 23.8 µM (inactive)
SK-MEL-28
  GI50: 47.9 µM (inactive)
SK-MEL-2
  GI50: 35.9 µM (inactive)
SK-MEL-5
  GI50: 21.5 µM (inactive)
SK-OV-3
  GI50: 38.9 µM (inactive)
SN12C
  GI50: 25.8 µM (inactive)
SNB-19
  GI50: 25.8 µM (inactive)
SNB-75
  GI50: 27.7 µM (inactive)
SNB-78
  GI50: 44.1 µM (inactive)
SR
  GI50: 12.8 µM (inactive)
SW-620
  GI50: 29.2 µM (inactive)
T47D
  GI50: 28.2 µM (inactive)
TK-10
  GI50: 53.6 µM (inactive)
U-251
  GI50: 27.5 µM (inactive)
UACC-257
  GI50: 38.1 µM (inactive)
UACC-62
  GI50: 19.5 µM (inactive)
UO-31
  GI50: 26.5 µM (inactive)

## COc1ccc(NC(=O)/C(Cc2cc(=O)oc3cc(O)ccc23)=N\NC(C)(C)C)c(OC)c1
786-0
  GI50: > 100 µM (inactive)
A498
  GI50: 22.8 µM (inactive)
A549
  GI50: > 100 µM (inactive)
ACHN
  GI50: > 100 µM (inactive)
CAKI-1
  GI50: > 100 µM (inactive)
CCRF-CEM
  GI50: > 100 µM (inactive)
COLO 205
  GI50: > 100 µM (inactive)
EKVX
  GI50: 12.6 µM (inactive)
HCC 2998
  GI50: > 100 µM (inactive)
HCT-116
  GI50: > 100 µM (inactive)
HCT-15
  GI50: > 100 µM
HL-60
  GI50: > 100 µM (inactive)
HOP-62
  GI50: > 100 µM (inactive)
HOP-92
  GI50: 53 µM (inactive)
HT-29
  GI50: > 100 µM (inactive)
IGROV-1
  GI50: > 100 µM (inactive)
K562
  GI50: > 100 µM (inactive)
KM-20L2
  GI50: > 100 µM (inactive)
KM12
  GI50: > 100 µM (inactive)
LOX IMVI
  GI50: > 100 µM (inactive)
LXFL 529
  GI50: > 100 µM (inactive)
M14
  GI50: > 100 µM (inactive)
M19-MEL
  GI50: > 100 µM (inactive)
MOLT-4
  GI50: > 100 µM (inactive)
Malme-3M
  GI50: > 100 µM (inactive)
NCI-H226
  GI50: > 100 µM (inactive)
NCI-H23
  GI50: > 100 µM (inactive)
NCI-H460
  GI50: > 100 µM (inactive)
NCI-H522
  GI50: > 100 µM (inactive)
OVCAR-3
  GI50: > 100 µM (inactive)
OVCAR-4
  GI50: > 100 µM (inactive)
OVCAR-5
  GI50: > 100 µM (inactive)
OVCAR-8
  GI50: > 100 µM (inactive)
RPMI-8226
  GI50: > 100 µM (inactive)
SF-268
  GI50: > 100 µM (inactive)
SF-295
  GI50: > 100 µM (inactive)
SF-539
  GI50: > 100 µM (inactive)
SK-MEL-28
  GI50: > 100 µM (inactive)
SK-MEL-2
  GI50: > 100 µM (inactive)
SK-MEL-5
  GI50: > 100 µM (inactive)
SK-OV-3
  GI50: > 100 µM (inactive)
SN12C
  GI50: > 100 µM (inactive)
SNB-19
  GI50: > 100 µM (inactive)
SNB-78
  GI50: > 100 µM (inactive)
SR
  GI50: > 100 µM (inactive)
SW-620
  GI50: > 100 µM (inactive)
TK-10
  GI50: > 100 µM (inactive)
U-251
  GI50: > 100 µM (inactive)
UACC-257
  GI50: > 100 µM (inactive)
UACC-62
  GI50: > 100 µM (inactive)
UO-31
  GI50: > 100 µM (inactive)
XF498
  GI50: > 100 µM (inactive)
